From patent US20250051355A1, “COMPOUNDS, COMPOSITIONS, AND METHODS” (ACONCAGUA BIO, INC., priority 2023, published 2025)

Key:
[1] = target: human calcitonin receptor (CTR) and RAMP3 (AMY3) (Homo sapiens, UniProt O60896+P30988); test: Amylin Receptor cAMP Assay II; format: cell-based; conditions: COS-7/AMY3 cells, cAMP dynamic 2 kit, read-out: Amylin Receptor cAMP Stimulation Activity: EC50
In short: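 COS-7 cells stably co-expressing human CTR and RAMP3 (AMY3) were treated with 4-fold serially diluted compounds at 2000 cells/well in HBSS with 20 mM HEPES, 0.5 mM IBMX and 0.1% casein for 30 min at 37 °C. cAMP was measured by HTRF (cAMP-d2 plus anti-cAMP cryptate, 1 h at RT) with reads at 665/615 nm.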

[2] = target: T1, human calcitonin receptor (CTR) (Homo sapiens, UniProt P30988); test: Calcitonin receptor (CTR) cAMP Assay; format: cell-based; conditions: COS7-human CTR Clone #2 cells, cAMP dynamic 2 kit; read-out: Calcitonin Receptor cAMP Stimulation Activity: EC50
T1 construct: expressed in transfected cells; host or cells: COS-7 (COS7-human CTR Clone #2)
T1 sequence (P30988 25-474): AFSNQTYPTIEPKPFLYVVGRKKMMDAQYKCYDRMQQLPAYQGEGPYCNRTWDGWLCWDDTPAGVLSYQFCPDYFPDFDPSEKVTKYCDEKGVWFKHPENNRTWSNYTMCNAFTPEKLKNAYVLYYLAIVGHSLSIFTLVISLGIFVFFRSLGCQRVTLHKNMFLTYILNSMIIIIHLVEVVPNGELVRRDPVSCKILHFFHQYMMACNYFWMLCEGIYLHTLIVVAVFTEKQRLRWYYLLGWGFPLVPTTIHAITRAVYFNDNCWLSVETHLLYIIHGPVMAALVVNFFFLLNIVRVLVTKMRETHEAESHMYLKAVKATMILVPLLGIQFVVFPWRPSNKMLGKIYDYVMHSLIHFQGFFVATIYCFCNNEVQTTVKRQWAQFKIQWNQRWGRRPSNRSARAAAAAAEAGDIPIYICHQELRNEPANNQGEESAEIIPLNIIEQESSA
In short: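 COS-7 cells stably expressing human CTR (2000 cells/well) treated with 4-fold serially diluted compounds in HBSS/20 mM HEPES/0.5 mM IBMX/0.1% casein, 30 min at 37° C. cAMP quantified by HTRF (cAMP-d2 plus anti-cAMP cryptate, 1 h RT), fluorescence read at 665 and 615 nm.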

Sequence of human calcitonin receptor (CTR) and RAMP3 (AMY3) (O60896 24-148, one chain of several): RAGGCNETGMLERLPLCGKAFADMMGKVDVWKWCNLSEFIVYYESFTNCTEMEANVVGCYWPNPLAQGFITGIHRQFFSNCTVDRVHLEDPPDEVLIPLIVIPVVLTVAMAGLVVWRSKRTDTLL

EC50 [1] [nM] | EC50 [2] [nM] | SMILES
270 | 9.64 | Cc1cnc(-c2c(CCC34CCC(CC3)OC4)nc3c(c2-c2ccc4c(c2)OCC(=O)N4Cc2ccc(F)cn2)c(=O)n2n3CCC2)o1 [Compound 157, 9-(4-[(5-fluoro-2-pyridyl)methyl]-3-oxo-2,4-dihydro-1,4-benzoxazin-7-yl}-10-(5-methyl-1,3-oxazol-2-yl)-11-(2-(2-oxabicyclo[2.2.2]oct-4-yl)ethyl}-2,6,12-triazatricyclo[6.4.0.0^2,6]dodeca-1(12),8,10-trien-7-one]
73 | 5.12 | Cc1cc(-c2c(CCC3CCOCC3)nc3c(c2-c2ccc4c(c2)oc(=O)n4Cc2ccc(C#N)c(F)c2)c(=O)n2n3CCC2)ccn1 [Compound 151, 2-fluoro-4-[(6-(10-(2-methyl-4-pyridyl)-7-oxo-11-[2-(tetrahydro-2H-pyran-4-yl)ethyl]-2,6,12-triazatricyclo[6.4.0.0^2,6]dodeca-1(12),8,10-trien-9-yl}-2-oxo-1,3-benzoxazol-3-yl)methyl]benzonitrile]
2070 | 129 | Cc1nnc(-c2c(CCC3CCCCO3)nc3c(c2-c2ccc(C(=O)NCc4ccc(F)c(F)c4)s2)C(=O)N2CCC[C@@H]32)o1 (stereo partly drawn) [Compound 62, N-(3,4-difluorobenzyl)-5-((9aS)-3-(5-methyl-1,3,4-oxadiazol-2-yl)-5-oxo-2-(2-(tetrahydro-2H-pyran-2-yl)ethyl)-7,8,9,9a-tetrahydro-5H-pyrido[2,3-a]pyrrolizin-4-yl)thiophene-2-carboxamide]
1540 | 49.2 | Cc1nnc(-c2c(CCC3CCOCC3)nc3c(c2-c2ccn4c(Cc5ccc(F)c(F)c5)cnc4c2)S(=O)(=O)CC3C(C)C)o1 (stereo not shown) [Compound 122, 7-(3-[(3,4-difluorophenyl)methyl]-1,3a-diaza-6-indenyl}-3-isopropyl-6-(5-methyl-1,3,4-oxadiazol-2-yl)-5-[2-(tetrahydro-2H-pyran-4-yl)ethyl]-1λ^6-thia-4-aza-1,1-indandione]
462 | 42.1 | Cc1nnc(-c2c(CCC3CCOC(C)(C)C3)nc3c(c2-c2cc4ncnc(N[C@@H]5CCc6ncccc65)c4s2)S(=O)(=O)CC3C(C)C)o1 (stereo partly drawn) [Compound 108, N—(R)-4-aza-1-indanyl(2-(5-[2-(2,2-dimethyltetrahydro-2H-pyran-4-yl)ethyl]-3-isopropyl-6-(5-methyl-1,3,4-oxadiazol-2-yl)-1,1-dioxo-1λ^6-thia-4-aza-7-indanyl}-1-thia-4,6-diaza-7-indenyl)amine]
540 | 117 | Cc1cc(-c2c(CCC3CCOCC3)nc3c(c2-c2cc4ccnc(N[C@@H]5CCc6ncccc65)c4s2)S(=O)(=O)CC3C(C)C)ncn1 (stereo partly drawn) [Compound 92, N—(R)-4-aza-1-indanyl(2-(3-isopropyl-6-(6-methyl-4-pyrimidinyl)-1,1-dioxo-5-[2-(tetrahydro-2H-pyran-4-yl)ethyl]-1λ^6-thia-4-aza-7-indanyl}-1-thia-6-aza-7-indenyl)amine]
128 | 11.7 | Cc1nnc(-c2c(CCC3CCOCC3)nc3c(c2-c2cnc4c(ccn4Cc4ccc(C#N)c(F)c4)c2)S(=O)(=O)N2CCC[C@@H]32)o1 [Compound 126, 4-[(5-{(2S)-10-(5-methyl-1,3,4-oxadiazol-2-yl)-7,7-dioxo-11-[2-(tetrahydro-2H-pyran-4-yl)ethyl]-7λ^6-thia-6,12-diazatricyclo[6.4.0.0^2,6]dodeca-1(12),8,10-trien-9-yl}-1H-1,7-diazainden-1-yl)methyl]-2-fluorobenzonitrile]
64.8 | 1.51 | Cc1nnc(-c2c(CCC3CCOCC3)nc3c(c2-c2ccc4c(c2)oc(=O)n4Cc2ccc(C#N)c(F)c2)S(=O)(=O)CC3C(C)C)o1 (stereo not shown) [Compound 109, 2-fluoro-4-[(6-(3-isopropyl-6-(5-methyl-1,3,4-oxadiazol-2-yl)-1,1-dioxo-5-[2-(tetrahydro-2H-pyran-4-yl)ethyl]-1λ^6-thia-4-aza-7-indanyl}-2-oxo-1,3-benzoxazol-3-yl)methyl]benzonitrile]
839 | 65.1 | Cc1cc(-c2c(CCC3CCOCC3)nc3c(c2-c2ccc4c(c2)oc(=O)n4Cc2ncc(Cl)cc2F)C(=O)N2CCC[C@@]32C)ccn1 [Compound 148, 6-((2S)-2-methyl-10-(2-methyl-4-pyridyl)-7-oxo-11-[2-(tetrahydro-2H-pyran-4-yl)ethyl]-6,12-diazatricyclo[6.4.0.0,^1I]dodeca-1(12),8,10-trien-9-yl}-3-[(5-chloro-3-fluoro-2-pyridyl)methyl]-1,3-benzoxazol-2(3H)-one]
318 | 20.7 | COc1noc(-c2c(CCc3ccc(F)cc3)nc3c(c2-c2cc4ccnc(N[C@@H]5CCc6c(OC)cccc65)c4s2)C(=O)N2CCC[C@@H]32)n1 [Compound 97, (S)-2-(4-fluorophenethyl)-3-(3-methoxy-1,2,4-oxadiazol-5-yl)-4-(7-(((R)-4-methoxy-2,3-dihydro-1H-inden-1-yl)amino)thieno[2,3-c]pyridin-2-yl)-7,8,9,9a-tetrahydro-5H-pyrido[2,3-a]pyrrolizin-5-one]
596 | 26.9 | Cc1nnc(-c2c(C(C)C)nc3c(c2-c2ccc4c(c2)OC(C)(C)C(=O)N4Cc2ccc(F)cn2)C(=O)N2CC4CC32C4)o1 [Compound 160, 4-[(5-fluoro-2-pyridyl)methyl]-7-[4-isopropyl-5-(5-methyl-1,3,4-oxadiazol-2-yl)-8-oxo-3,9-diazatetracyclo[9.1.1.0^1,9.0^2,7]trideca-2,4,6-trien-6-yl]-2,2-dimethyl-4H-1,4-benzoxazin-3(2H)-one]
427 | 6.4 | COc1cccc2c1CC[C@H]2Nc1nccc2cc(-c3c(-c4nnc(C)o4)c(CCC4CCOCC4)nc4c3S(=O)(=O)CC4C(C)C)sc12 (stereo partly drawn) [Compound 77, 3-isopropyl-7-(7-(((R)-4-methoxy-2,3-dihydro-1H-inden-1-yl)amino)thieno[2,3-c]pyridin-2-yl)-6-(5-methyl-1,3,4-oxadiazol-2-yl)-5-(2-(tetrahydro-2H-pyran-4-yl)ethyl)-2,3-dihydrothieno[3,2-b]pyridine 1,1-dioxide]
5380 | 226 | CCc1nc2c(c(-c3ccc4c(c3)OC(C)(C)C(=O)N4Cc3ccc(F)cn3)c1-c1nnc(C)o1)C(=O)N1CC3CC21C3 [Compound 161, 7-[4-ethyl-5-(5-methyl-1,3,4-oxadiazol-2-yl)-8-oxo-3,9-diazatetracyclo[9.1.1.01, 0.2,1]trideca-2,4,6-trien-6-yl]-4-[(5-fluoro-2-pyridyl)methyl]-2,2-dimethyl-4H-1,4-benzoxazin-3(2H)-one]
1490 | 235 | Cc1nnc(-c2c(CCC3CCOCC3)nc3c(c2-c2cc4ccnc(NCc5ccc(C#N)c(F)n5)c4s2)S(=O)(=O)CC3C(C)C)o1 (stereo not shown) [Compound 134, 2-fluoro-6-[(2-(3-isopropyl-6-(5-methyl-1,3,4-oxadiazol-2-yl)-1,1-dioxo-5-[2-(tetrahydro-2H-pyran-4-yl)ethyl]-1-2-thia-4-aza-7-indanyl}-1-thia-6-aza-7-indenylamino)methyl]nicotinonitrile]
3100 | 1050 | Cc1nnc(-c2c(CCC3CCOCC3)nc3c(c2-c2cn4cccc(N[C@@H]5CCc6ncccc65)c4n2)S(=O)(=O)CC3C(C)C)o1 (stereo partly drawn) [Compound 88, N—(R)-4-aza-1-indanyl(2-(3-isopropyl-6-(5-methyl-1,3,4-oxadiazol-2-yl)-1,1-dioxo-5-[2-(tetrahydro-2H-pyran-4-yl)ethyl]-1λ^6-thia-4-aza-7-indanyl}-1,3a-diaza-7-indenyl)amine]
79.4 | 6.35 | Cc1nnc(-c2c(CCC3CCOCC3)nc3c(c2-c2cnc4c(ccn4Cc4ccc(C#N)c(F)c4)c2)C(=O)N[C@H]3C(C)C)o1 [Compound 143, 4-[(5-{(S)-3-isopropyl-6-(5-methyl-1,3,4-oxadiazol-2-yl)-1-oxo-5-[2-(tetrahydro-2H-pyran-4-yl)ethyl]-2,4-diaza-7-indanyl}-1H-1,7-diazainden-1-yl)methyl]-2-fluorobenzonitrile]
135 | 4.15 | Cc1nnc(-c2c(CCC3CCOCC3)nc3c(c2-c2ccc4c(c2)oc(=O)n4C(C)c2ccc(C#N)c(F)c2)c(=O)n2n3CCC2)o1 (stereo not shown) [Compound 114, 2-fluoro-4-[1-(6-(10-(5-methyl-1,3,4-oxadiazol-2-yl)-7-oxo-11-[2-(tetrahydro-2H-pyran-4-yl)ethyl]-2,6,12-triazatricyclo[6.4.0.0^2,6]dodeca-1(12),8,10-trien-9-yl}-2-oxo-1,3-benzoxazol-3-yl)ethyl]benzonitrile]
